These results are taken from US20060258754A1, “Method of treating endothelial dysfunction, oxidative stress and related diseases” (priority 2004, published 2006).

One data set has as its system DNA. To be noted: pro-oxidant potential; cited from earlier work.
Another data set relates to vascular mesenteric bed. Description: Rat arteriolar mesenteric bed: acetylcholine-evoked decrease in perfusion pressure after 4-week oral treatment. Type of data set: in vivo, alloxan-diabetic male Wistar rats. To be noted: chronic (4-week) oral administration, highest acetyl choline concentrations, FIG. 4. Here is the method: Male Wistar rats, weighing between 230-250 g, fed regular chow, with free access to water were separated in four groups (n=10/each). The first two groups, termed normoglycemic, were treated with saline (0.1 mL/100 g/12 h) by the oral route (intragastric gavage) or untreated for four weeks. The second two groups, hyperglycemic, were treated with saline (0.1 mL/100 g/12 h) or treated with D-chiro-inositol (20 mg/kg/12 h) under the same protocol. […] Diabetes was induced by a single intravenous injection of 45 mg/kg alloxan as described by Sannomiya et al., 1997 ( ). Diabetes was diagnosed 96 h after injection by blood glucose assay >200 mg/dL. All protocols were approved by the local committee and follow the Guide for the Care and Use of Laboratory Animals published by the US National Institutes of Health (NIH Publication No. 85-23, revised 1996).
The mesentery was carefully removed by cutting close to the intestinal border with a small scissors. […] The vascular bed was rapidly perfused with warm KHS (37° C.; pH 7.4; gassed with 95% O2 in 5% CO2) in an open system with a constant flow of 4 ml/min maintained with a peristaltic pump. Alterations in perfusion pressure were continuously recorded in a four-channel polygraph (Narco Biosystems, Houston, Tex., USA) by means of a pressure transducer (P23 Gould Stratham, Oxnard, Calif., USA). After a 30 minute equilibration period, phenylephrine (1 to 5 μM) was infused by means of an infusion pump at a constant rate (0.1 ml/min) in order to achieve a stable perfusion pressure (100-120 mm Hg). Dose response curves were performed with vasodilators, i.e. acetylcholine (Ach; 10^-9 to 10^-3 M). Drugs were injected as 50 μL boluses, previously shown not to effect perfusion pressure in a side arm just above the cannula in the mesenteric artery. At least 6 separate experiments were performed each in duplicate.

The test system of another data set is aortic rings. Put plainly: Rat aortic thoracic rings: acetylcholine relaxation after phenylephrine contraction, 4-week oral treatment. The format is in vivo, alloxan-diabetic male Wistar rats. To be noted: chronic oral administration, acetylcholine 10^-7 M, FIG. 3. Here is the method: Male Wistar rats, weighing between 230-250 g, fed regular chow, with free access to water were separated in four groups (n=10/each). The first two groups, termed normoglycemic, were treated with saline (0.1 mL/100 g/12 h) by the oral route (intragastric gavage) or untreated for four weeks. The second two groups, hyperglycemic, were treated with saline (0.1 mL/100 g/12 h) or treated with D-chiro-inositol (20 mg/kg/12 h) under the same protocol. […] Diabetes was induced by a single intravenous injection of 45 mg/kg alloxan as described by Sannomiya et al., 1997 ( ). Diabetes was diagnosed 96 h after injection by blood glucose assay >200 mg/dL. All protocols were approved by the local committee and follow the Guide for the Care and Use of Laboratory Animals published by the US National Institutes of Health (NIH Publication No. 85-23, revised 1996). After completion of blood pressure measurements and vascular mesenteric bed collection, animals were sacrificed by exsanguination while under anesthesia. The thoracic aorta was excised and rapidly cleansed of connective tissue in Petri dishes containing warmed and gassed (95% O2 in 5% CO2) Krebs-Henseleit solution (KHS). The aorta segment was cut in small rings (≈5 mm) and mounted horizontally in 5 mL chambers for isometric recording of tension. The resting tension was adjusted to 1 g and the tissue allowed to equilibrate for 1 hour with a 15 min washout period. Tissues were kept in KHS at 37° C., gassed with the O2, CO2 mixture and isometric recordings made with a force displacement transducer connected to a four-channel polygraph (Narco Biosystems, Houston, Tex., USA). After the equilibration period, tissues were contracted with a submaximal concentration of phenylephrine (≈60% maximal response) until two similar responses were obtained in order to ensure reproducibility of the contraction curves. […] The acetylcholine dose response curve was repeated after a 60 min washout interval. All experiments were performed in the presence of indomethecin (10 μM) and guanethidine (10 μM) to prevent the production of vasoactive prostanoids. At least 6 separate experiments will be performed each in duplicate.

Data set [1] concerns ROS generated by xanthine/xanthine oxidase. Description: Superoxide assay in vitro: xanthine/xanthine oxidase, NBT reduction. Type of data set: biochemical. The following applies: low micromolar concentrations, FIG. 10. Here is the method: Superoxide radicals were generated by the reaction of xanthine (1 mM) and xanthine oxidase ([…]) in air-saturated potassium phosphate buffer (pH 7.8 at 25° C.). Superoxide anions were detected by nitroblue tetrazolium (NBT—50 μM) which undergoes reduction by O2-. to its formazan. The rate of reduction was monitored spectrophotometrically at 560 nm with an Ultrospec 1000 (Pharmacia Biotech, Cambridge, England). SOD-1, by scavanging O2-. Diminishes the rate of reduction of NBT. The volume was fixed at 2 mL. Each experiment was run in duplicate.

The subject of data set [2] is human erythrocytes and human cataractous lenses. To be noted: cited from earlier work.
In another data set the test system is penile corpus cavernosus. Description: Rabbit penile corpus cavernosus: relaxation to electrical field stimulation after 60 min incubation. Also noted: species or system low dose alloxan-diabetic rabbit. The following applies: 1 μM, EFS 2-16 Hz, FIG. 8. On the procedure: Male California rabbits, weighing 2-2.5 kg, were provided by the vivarium of the Biomedicine Institute-UFC. Diabetes was induced by intraperitoneal injection of alloxan (150 mg/kg) and only animals with plasma glucose concentration above 200 mg/dl were included in the study. Age-matched euglycemic rabbits were used as controls.
Kidneys and aortic rings were harvested from diabetic rabbits after 3 weeks of alloxan injection. The animals were sacrificed under sodium pentobarbital anesthesia (Hypnol®, 150-200 mg/kg). […]. Rabbit kidneys were obtained from male New Zealand rabbits (1-1.5 kg) after cannulation of the renal artery in situ. [Thereafter the organ is rapidly perfused with warm KHS at 37° C., pH 7.4 and gassed with 95% O2 in 5% CO2 in an open system with a constant flow adjusted to yield 1 mL/g/min and maintained by a peristaltic pump. The alterations in perfusion pressure are continuously recorded in a four-channel polygraph (Narco Biosystems, Houston, Tex., USA) by means of a pressure transducer (P23 Gould Stratham, Oxnard, Calif., USA). After a 30 minute equilibration period, phenylephrine (1 to 5 μM) is infused by means of an infusion pump at a constant rate (0.1 ml/min) in order to achieve a stable perfusion pressure (100-120 mm Hg). Concentration-response curves are performed to the vasodilators, i.e. acetylcholine (Ach; 10^-9 to 10^-3 M). Drugs are injected as a 50 μL bolus, previously shown not to effect perfusion pressure in an arm side just above the cannula in the renal artery.] Following penectomy, the corpus cavernosum was dissected in Krebs solution and cleared of the tunica albuginea and surrounding tissues. Strips (2 cm) were mounted vertically in isometric baths (5 mL) in Krebs-Henseleit solution (37° C., pH 7.4 gassed with 95% O2 in 5% CO2) enriched with indomethecin (10 μM) and guanethedine (10 μM) in order to avoid prostanoid or neuronal norandrenergic interaction. After a 60 minute period for stabilization, tissues were precontracted with 10 μM phenylephrine in order to increase the basal tonus. Thereafter, frequency response curves to transmural electrical field stimulations (EFS—square wave pulses: 10 s train; 20 V, 0.5 ms, 2-16 Hz) were performed until two stable reproducible curves were attained. Then, frequency response curves were repeated after 60 min incubation with saline or 1 μM pinitol, DCI or db-DCI in the alloxan-diabetic rabbits. They are perfused with KHS containing 1 μM D-chiro-inositol, pinitol, dibutyryl D-chiro-inositol, myo-inositol or saline for 60 min. Dose response curves for acetylcholine are then performed following prior phenylephrine vasoconstriction as described. At least 6 separate experiments were performed each in duplicate.

Entries after “also recorded” stand apart in the source; their conditions may differ.

Consider `CC(=O)N[C@@H](CS)C(=O)O` [N-acetylcysteine], for which the “oxidative DNA damage” value in the data set with DNA is listed as “cause oxidative DNA damage”.

In the case of `O=P(O)(O)O[C@H]1[C@H](OP(=O)(O)O)[C@@H](OP(=O)(O)O)[C@H](OP(=O)(O)O)[C@@H](OP(=O)(O)O)[C@H]1OP(=O)(O)O` [Phytic acid, Myoinositol hexaphosphate], the “oxidative DNA damage” value in the data set on DNA was “does not cause oxidative DNA damage even at high concentrations”.

With `O[C@H]1[C@H](O)[C@@H](O)[C@H](O)[C@@H](O)[C@H]1O` [myoinositol, reference compound], the “effect on microvascular endothelial dysfunction” value was “perhaps slightly better than pinitol and DCI” in the data set on vascular mesenteric bed; “perhaps slightly better than pinitol and D-chiro-inositol” in the data set on vascular mesenteric bed (listed as myo-inositol). For the same molecule, the “effect on macrovascular endothelial dysfunction at intermediate acetylcholine concentration” value in the data set with aortic rings was “followed by DCI, pinitol and myoinositol in descending order of effect”; with aortic rings (listed as myo-inositol) it was “active at intermediate acetyl choline concentrations”. Also, the “reduction of ROS generated by xanthine/xanthine oxidase” value in data set [1] is reported as “reduced ROS in a low micromolar concentration dependant manner”; in data set [1] (listed as myo-inositol) it was “equally effective”. The “peroxidation effect of hydrogen peroxide” value in data set [2] is listed as “decrease the peroxidation effect of hydrogen peroxide”.

Consider `CO[C@H]1[C@H](O)[C@@H](O)[C@@H](O)[C@H](O)[C@@H]1O` [pinitol], for which the “effect on microvascular endothelial dysfunction” value in the data set with vascular mesenteric bed was “approximately equally effective”. Also, the “effect on macrovascular endothelial dysfunction at intermediate acetylcholine concentration” value in the data set on aortic rings was “followed by DCI, pinitol and myoinositol in descending order of effect; also recorded: active at intermediate acetyl choline concentrations”. Besides, the “restoration of vasorelaxant effect of electrical stimulation of the pudendal nerve” value in the data set on penile corpus cavernosus was “restoration of vasorelaxant effect”. Also, the “reduction of ROS generated by xanthine/xanthine oxidase” value in data set [1] is listed as “equally effective; also recorded: reduced ROS in a low micromolar concentration dependant manner”.

Regarding `O=c1c(O)c(-c2ccc(O)c(O)c2)oc2cc(O)cc(O)c12` [quercetin], the “oxidative DNA damage” value in the data set with DNA is recorded as “cause oxidative DNA damage”.

In the case of Vitamin A, in the data set on DNA, the “oxidative DNA damage” value is on record as “cause oxidative DNA damage”.
